In ChEMBL document CHEMBL1649509, “Lon protease is essential for paradoxical survival of Escherichia coli exposed to high concentrations of quinolone” (Antimicrob Agents Chemother, 2009) one finds Activity data, which are given here for one molecule.

Calls of active or inactive are those of the source. The calls are words filed in the database; no cut-off is given here.

Holding throughout (format): functional, organism-based
The subject of test [1] is Escherichia coli. In words: Antibacterial activity against lon-deficient Escherichia coli KD2372 by viscometric assay.
In test [2] the test system is Escherichia coli. As to the kind of experiment: Antibacterial activity against Escherichia coli K-12 by viscometric assay.
Test [3] relates to Escherichia coli. In words: Antibacterial activity against lon-deficient Escherichia coli KD2372.
For test [4], the system named is Escherichia coli. In words: Antibacterial activity against Escherichia coli K-12 harboring lon lexA3 mutant gene.
In test [5] the test system is Escherichia coli. As to the kind of experiment: Antibacterial activity against Escherichia coli K-12 harboring lon sulA double mutant gene.
Test [6] concerns Escherichia coli. As to the kind of experiment: Antibacterial activity against Escherichia coli K-12 harboring gyrA67/gyrB225 mutant gene.

As to `CCn1cc(C(=O)O)c(=O)c2ccc(C)nc21`, the outcome in test [1], in test [3], in test [4], in test [5] and in test [6] was Active. In addition, the result in test [2] was inactive.
